We go through 16 molecules from patent US9133219B2, “Bicyclic antibiotics” (Basilea Pharmaceutica AG, priority 2009, dated 2015).

In brackets after ≈: the same amount, converted by molar mass. Bounds are passed on as bounds.

Assay type in all cases: cell-based
The test system of assay [1] is Streptococcus pneumoniae. Briefly: Anti-microbial activity assay, MIC by broth microdilution (CAMHB with 5% horse serum). The conditions noted are these: Streptococcus pneumoniae; strain ATCC49619; CAMHB with 5% horse serum; read-out: MIC Streptococcus pneumoniae ATCC49619. How it is done: (§1) Anti-Microbial Activity Assay.
(§2) The antibacterial activity of compounds is determined by the minimal inhibitory concentration (MIC) method. MICs for all bacteria except pneumococci and Haemophilus influenzae are obtained by broth microdilution with cation-adjusted Mueller-Hinton broth (CAMHB; BBL), according to CLSI guidelines (National Committee for Clinical Laboratory Standards. 2003. Methods for dilution antimicrobial susceptibility tests for bacteria that grow aerobically, 5th ed.; approved standard M7-A6. National Committee for Clinical Laboratory Standards, Wayne, Pa.), with the following modifications: (i) for pneumococci CAMHB is supplemented with 5% (^v/v) horse serum; (ii) for Haemophilus influenzae CAMHB is supplemented with 5% (^v/v) Fildes enrichment (BBL) (Pankuch, G. A., Hoellman, D. B., Lin, G., Bajaksouzian, S., Jacobs, M. R., and Appelbaum, P. C. 1998. Activity of HMR 3647 compared to those of five agents against Haemophilus influenzae and Moraxella catarrhalis by MIC determination and time-kill assay. Antimicrob. Agents Chemother. 42:3032-3034). Microtiter plates are incubated at 35° C. in ambient air for 20 to 24 h, then inspected using an illuminated microtiter plate reader fitted with a magnifying mirror (MIC 2000; Cooke Laboratory Products, Alexandria, Va.). Compounds of the present invention are tested against several bacteria strains comprising some Acinetobacter baumannii, Enterococcus faecalis, Enterococcus faecitan, Escherichia coli, Haemophilus influenzae, Klebsiella pneumoniae, Pseudomonas aeruginosa, Staphylococcus aureus, Staphylococcus epidermidis and Streptococcus pneumoniae.

In assay [2] the test system is Escherichia coli. Briefly: Anti-microbial activity assay, MIC by broth microdilution. Particulars: Escherichia coli; strain UB1005; read-out: MIC Escherichia coli UB1005. As to the method:
as §1, §2

For assay [3], the system named is Staphylococcus aureus. The assay is described as above. The conditions noted are these: Staphylococcus aureus; strain ATCC29213; read-out: MIC Staphylococcus aureus ATCC29213. How it is done:
as §1, §2

Assay [4] has as its system Staphylococcus epidermidis. Described as above. The conditions noted are these: Staphylococcus epidermidis; strain ATCC14990. How it is done:
as §1, §2

Assay [5] concerns Staphylococcus aureus and/or Staphylococcus epidermidis and/or Streptococcus pneumoniae. The assay is described as follows: MIC summary statement, staphylococci and pneumococci. The conditions noted are these: generally, for Staphylococcus aureus and/or Staphylococcus epidermidis and/or Streptococcus pneumoniae. How it is done:
as §1, §2

The subject of assay [6] is Staphylococcus aureus and/or Staphylococcus epidermidis. Briefly: MIC summary statement, staphylococci. The conditions noted are these: generally, for Staphylococcus aureus and/or Staphylococcus epidermidis. How it is done: as §1, §2
Assay [7] concerns Staphylococcus aureus and/or Staphylococcus epidermidis and/or Streptococcus pneumoniae and/or Escherichia coli. Briefly: MIC summary statement, staphylococci, pneumococci and E. coli. The conditions noted are these: generally, for S. aureus and/or S. epidermidis and/or S. pneumoniae and/or E. coli; in most case of less than 2 mg/L. As to the method:
as §1, §2

Consider `COc1ccc2ncc(OCCN3CCC(NC(=O)c4cc(-c5cccs5)on4)CC3)nc2c1` [Example 5, 5-thiophen-2-yl-isoxazole-3-carboxylic acid {1-[2-(7-methoxy-quinoxalin-2-yloxy)-ethyl]-piperidin-4-yl}-amide], for which the MIC was not above 2 µg/mL in assay [1]; more than 32 µg/mL in assay [2]; not above 2 µg/mL in assay [3]; not above 2 µg/mL in assay [4]; not above 2 µg/mL in assay [5]; not above 2 µg/mL in assay [6].
Turning to `COc1ccc2ncc(OCCCN3CCC(CNCc4ccc5c(n4)NC(=O)CO5)CC3)nc2c1` [Example 9, 6-[({1-[3-(7-methoxy-quinoxalin-2-yloxy)-propyl]-piperidin-4-ylmethyl}-amino)-methyl]-4H-pyrido[3,2-b][1,4]oxazin-3-one], the MIC in assay [1] is not above 2 µg/mL; in assay [7], not above 4 µg/mL; in assay [2], 4 µg/mL (≈ 8.12 µM); in assay [3], not above 2 µg/mL; in assay [4] it was 4 µg/mL (≈ 8.12 µM); in assay [5], not above 2 µg/mL. In assay [6], this molecule showed an MIC not above 2 µg/mL.
As to `COc1ccc2ncc(SCCN3CCC(NC(=O)c4cc(-c5cccs5)on4)CC3)nc2c1` [Example 35, 5-thiophen-2-yl-isoxazole-3-carboxylic acid {1-[2-(7-methoxy-quinoxalin-2-ylsulfanyl)-ethyl]-piperidin-4-yl}-amide], the MIC was not above 2 µg/mL in assay [1]; more than 32 µg/mL in assay [2]; not above 2 µg/mL in assay [3]; not above 2 µg/mL in assay [4]; not above 2 µg/mL in assay [5]; not above 2 µg/mL in assay [6].
Turning to `COc1ccc2ncc(SCCN3CCC(NC(=O)c4ccc5c(c4)NC(=O)CO5)CC3)nc2c1` [Example 36, 3-oxo-3,4-dihydro-2H-benzo[1,4]oxazine-6-carboxylic acid {1-[2-(7-methoxy-quinoxalin-2-ylsulfanyl)-ethyl]-piperidin-4-yl}-amide], the minimal inhibitory concentration (MIC) is not above 2 µg/mL in assay [1]; not above 4 µg/mL in assay [7]; 4 µg/mL (≈ 8.1 µM) in assay [2]; not above 2 µg/mL in assay [3]; not above 2 µg/mL in assay [4]; not above 2 µg/mL in assay [5]. The MIC in assay [6] was not above 2 µg/mL.
Consider `COc1ccc2ncc(SCCN3CCC(NC(=O)c4cc5c(cc4Cl)SCC(=O)N5)CC3)nc2c1` [Example 37, 7-chloro-3-oxo-3,4-dihydro-2H-benzo[1,4]thiazine-6-carboxylic acid {1-[2-(7-methoxy-quinoxalin-2-ylsulfanyl)-ethyl]-piperidin-4-yl}-amide], for which the MIC in assay [1] was not above 2 µg/mL; in assay [7], not above 4 µg/mL; in assay [2] it was not above 2 µg/mL; in assay [3], not above 2 µg/mL; in assay [4], not above 2 µg/mL; in assay [5], not above 2 µg/mL. The MIC in assay [6] is not above 2 µg/mL.
Turning to `COc1ccc2ncc(SCCN3CCC(NCCSc4cccs4)CC3)nc2c1` [Example 38, {1-[2-(7-methoxy-quinoxalin-2-ylsulfanyl)-ethyl]-piperidin-4-yl}-[2-(thiophen-2-ylsulfanyl)-ethyl]-amine], the minimum inhibitory concentration (MIC) in assay [1] was not above 2 µg/mL; in assay [2], 16 µg/mL (≈ 34.7 µM); in assay [3], not above 2 µg/mL; in assay [4] it was not above 2 µg/mL; in assay [5], not above 2 µg/mL; in assay [6], not above 2 µg/mL.
For `COc1ccc2ncc(SCCN3CCC(NC(=O)c4ccc5c(c4)OCCO5)CC3)nc2c1` [Example 39, 2,3-dihydro-benzo[1,4]dioxine-6-carboxylic acid {1-[2-(7-methoxy-quinoxalin-2-ylsulfanyl)-ethyl]-piperidin-4-yl}-amide], the MIC in assay [1] is not above 2 µg/mL; in assay [2], not below 32 µg/mL; in assay [3], not above 2 µg/mL; in assay [4], not above 2 µg/mL; in assay [5], not above 2 µg/mL; in assay [6], not above 2 µg/mL.
For `COc1ccc2ncc(SCCN3CCC(NCc4ccc5c(c4)OCCO5)CC3)nc2c1` [Example 41, (2,3-dihydro-benzo[1,4]dioxin-6-ylmethyl)-{1-[2-(7-methoxy-quinoxalin-2-ylsulfanyl)-ethyl]-piperidin-4-yl}-amine], the MIC in assay [1] is not above 2 µg/mL; in assay [2] it was 8 µg/mL (≈ 17.1 µM); in assay [3] it was not above 2 µg/mL; in assay [4], not above 2 µg/mL; in assay [5] it was not above 2 µg/mL; in assay [6], not above 2 µg/mL.
Turning to `COc1ccc2ncc(SCCN3CCC(NCc4cc(-c5cccs5)on4)CC3)nc2c1` [Example 42, {1-[2-(7-methoxy-quinoxalin-2-ylsulfanyl)-ethyl]-piperidin-4-yl}-(5-thiophen-2-yl-isoxazol-3-ylmethyl)-amine], the MIC is not above 2 µg/mL in assay [1]; 8 µg/mL (≈ 16.6 µM) in assay [2]; not above 2 µg/mL in assay [3]; not above 2 µg/mL in assay [4]; not above 2 µg/mL in assay [5]; not above 2 µg/mL in assay [6].
With `COc1ccc2ncc(SCCN3CCC(N(C)Cc4ccc5c(c4)OCCO5)CC3)nc2c1` [Example 43, (2,3-dihydro-benzo[1,4]dioxin-6-ylmethyl)-{1-[2-(7-methoxy-quinoxalin-2-ylsulfanyl)-ethyl]-piperidin-4-yl}-methyl-amine], the MIC is not above 2 µg/mL in assay [1]; 16 µg/mL (≈ 33.3 µM) in assay [2]; not above 2 µg/mL in assay [3]; not above 2 µg/mL in assay [4]; not above 2 µg/mL in assay [5]; not above 2 µg/mL in assay [6].
As for `COc1ccc2ncc(SCCN3CCC(NC(=O)c4cc5c(cc4Cl)SCCN5)CC3)nc2c1` [Example 44, 7-chloro-3,4-dihydro-2H-benzo[1,4]thiazine-6-carboxylic acid {1-[2-(7-methoxy-quinoxalin-2-ylsulfanyl)-ethyl]-piperidin-4-yl}-amide], the MIC was 4 µg/mL (≈ 7.55 µM) in assay [1]; not above 4 µg/mL in assay [7]; 4 µg/mL (≈ 7.55 µM) in assay [2]; not above 2 µg/mL in assay [3]; not above 2 µg/mL in assay [4]; not above 2 µg/mL in assay [6].
With `CCN(Cc1ccc2c(c1)OCCO2)C1CCN(CCSc2cnc3ccc(OC)cc3n2)CC1` [Example 47, (2,3-dihydro-benzo[1,4]dioxin-6-ylmethyl)-ethyl-{1-[2-(7-methoxy-quinoxalin-2-ylsulfanyl)-ethyl]-piperidin-4-yl}-amine], the MIC in assay [1] was not above 2 µg/mL; in assay [2] it was 32 µg/mL (≈ 64.7 µM); in assay [3], not above 2 µg/mL; in assay [4], not above 2 µg/mL; in assay [5], not above 2 µg/mL; in assay [6] it was not above 2 µg/mL.
Consider `COc1ccc2ncc(SCCN3CCC(NC(=O)c4nc5c(cc4Cl)SCC(=O)N5)CC3)nc2c1` [Example 51, 7-chloro-3-oxo-3,4-dihydro-2H-pyrido[3,2-b][1,4]thiazine-6-carboxylic acid {1-[2-(7-methoxy-quinoxalin-2-ylsulfanyl)-ethyl]-piperidin-4-yl}-amide], for which the MIC was 4 µg/mL (≈ 7.34 µM) in assay [1]; not above 4 µg/mL in assay [7]; 4 µg/mL (≈ 7.34 µM) in assay [2]; not above 2 µg/mL in assay [3]; not above 2 µg/mL in assay [4]; not above 2 µg/mL in assay [6].
`COc1ccc2ncc(SCCN3CCC(N(C)C(=O)c4ccc5c(c4)NC(=O)CS5)CC3)nc2c1` [Example 52, 3-oxo-3,4-dihydro-2H-benzo[1,4]thiazine-6-carboxylic acid {1-[2-(7-methoxy-quinoxalin-2-ylsulfanyl)-ethyl]-piperidin-4-yl}-methyl-amide]: the MIC in assay [1] was not above 2 µg/mL; in assay [2], 16 µg/mL (≈ 30.6 µM); in assay [3] it was not above 2 µg/mL; in assay [4], not above 2 µg/mL; in assay [5], not above 2 µg/mL; in assay [6] it was not above 2 µg/mL.
In the case of `COc1ccc2ncc(SCCN3CCC(NC(=O)c4cc5c(cc4Cl)SCC(=O)N5)CC3)cc2c1` [Example 54, 7-chloro-3-oxo-3,4-dihydro-2H-benzo[1,4]thiazine-6-carboxylic acid {1-[2-(6-methoxy-quinolin-3-ylsulfanyl)-ethyl]-piperidin-4-yl}-amide], the MIC in assay [1] is 4 µg/mL (≈ 7.36 µM); in assay [7] it was not above 4 µg/mL; in assay [2], 4 µg/mL (≈ 7.36 µM); in assay [3], not above 2 µg/mL; in assay [4], not above 2 µg/mL; in assay [6], not above 2 µg/mL.
Take `COc1ccc2ncc(SCCN3CCC(NC(=O)c4ccc5c(n4)NC(=O)CS5)CC3)cc2c1` [Example 55, 3-oxo-3,4-dihydro-2H-pyrido[3,2-b][1,4]thiazine-6-carboxylic acid {1-[2-(6-methoxy-quinolin-3-ylsulfanyl)-ethyl]-piperidin-4-yl}-amide]: the minimum inhibitory concentration (MIC) is not above 2 µg/mL in assay [1]; 16 µg/mL (≈ 31.4 µM) in assay [2]; not above 2 µg/mL in assay [3]; not above 2 µg/mL in assay [4]; not above 2 µg/mL in assay [5]; not above 2 µg/mL in assay [6].
